How the values were obtained:
Human IBAT = biological target: T1, Human IBAT (Homo sapiens, UniProt Q12908); experiment: IBAT (h/m) assay, human IBAT-overexpressing cells, 3H-taurocholic acid uptake; assay type: cell-based; conditions: 0.25 μM 3H-taurocholic acid and 5 μM cold taurocholic acid, 20 minutes, read-out: hIBAT IC50
T1 construct: expressed in transfected cells; Puromycin-selected
T1 sequence (Q12908 1-348): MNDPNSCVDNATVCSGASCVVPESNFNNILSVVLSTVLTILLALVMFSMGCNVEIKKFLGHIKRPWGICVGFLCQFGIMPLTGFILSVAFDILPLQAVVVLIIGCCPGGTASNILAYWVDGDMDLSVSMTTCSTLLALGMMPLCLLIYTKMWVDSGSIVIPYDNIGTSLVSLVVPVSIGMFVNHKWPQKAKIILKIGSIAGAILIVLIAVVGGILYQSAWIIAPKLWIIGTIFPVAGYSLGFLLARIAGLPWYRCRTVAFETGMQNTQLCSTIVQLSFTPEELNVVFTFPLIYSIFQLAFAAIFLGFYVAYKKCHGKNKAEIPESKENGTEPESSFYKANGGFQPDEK
Procedure: IBAT (h/m) Assay Protocol
10,000 cells (Human or Mouse IBAT-overexpressing cells) were seeded in 96-wells plate (Corning CLS3809) in 200 μL MEM-alpha medium (Gibco 12571-063) supplemented with 10% FBS (Gibco 10438026) containing Puromycin (Gibco A1113803) (10 μg/mL) and incubated at 37° C. in 5% CO2 for 48 hours. After incubation, media was decanted from the wells and cells were washed two times with 300 μL of basal MEM-alpha medium (FBS-free). After decanting basal MEM-alpha medium each time, plates were tapped against paper towel to ensure maximum removal of residual media. Test inhibitor dilutions (highest test concentration being 10 μM, 3-fold serial dilution, 10 points) prepared in DMSO (Sigma D2650) were added in incubation mix (maintaining 0.2% final DMSO concentration) containing 0.25 μM 3H-taurocholic acid (ARC ART-1368) and 5 μM of cold taurocholic acid (Sigma T4009). 50 μL of incubation mix containing test inhibitors was then added to the wells (in duplicate) and the plates were incubated for 20 minutes in a CO2 incubator at 37° C. After incubation, the reaction was stopped by keeping the plates on ice water mix for 2-3 minutes and then the incubation mix was aspirated completely from the wells. The wells were washed two times with 250 μL of chilled unlabelled 1 mM taurocholic acid dissolved in HEPES (Gibco 15630080)-buffered (10 mM) HBSS (Gibco 14175079) (pH 7.4). The plates were tapped against a paper towel after every wash to ensure maximum removal of blocking buffer.
100 μL of MicroScint-20 (PerkinElmer 6013621) was added to the wells and kept overnight at room temperature before reading the plates in TopCount NXT™ Microplate Scintillation and Luminescence Counter from PerkinElmer under 3H Test protocol (set at 120 seconds reading time per well).
(§1) Preparation of Test Compound Dilutions
(§2) All test compounds were provided in powder form at room temperature. 10 mM DMSO stocks of the test compounds were prepared, aliquoted and stored at −20° C. From the 10 mM DMSO stock of the compounds, a 3-fold serial dilution in DMSO was prepared to get a total of 10 dilutions of the test compounds. 0.5 μL of this dilution in DMSO was added to 250 μL of FBS-free basal media containing 3H-taurocholic acid and cold taurocholic acid to prepare the incubation mixture.

[1] = Bidirectional permeability assay (Caco-2 cells); assay type: in vitro ADME; conditions: human, Caco-2, absorptive direction (A2B), 10 μM in FaSSIF buffer
Procedure: Bidirectional Permeability Assay (Caco-2 Cells)
Caco-2 cells (Evotec) were seeded at a density of 70,000 cells/well in Millicell® 24-well cell culture insert plates and maintained in an incubator (37° C., 5% CO2, 95% RH) for 21 days with media change on alternate days.
Stock solutions (10 mM) of the test compounds, atenolol (low permeability marker), propranolol (high permeability marker) and digoxin (substrate for P-gp transport pathway) were prepared in dimethylsulfoxide (DMSO). An intermediate stock solution (1 mM) was prepared by diluting 10 μL of 10 mM master stock solution with 90 μL of neat DMSO. A working stock solution (10 μM) was prepared by diluting 50 μL of 1 mM with 4950 μL of FaSSIF buffer. Post addition of compounds to the FaSSIF, samples were subjected to sonication for 2 hours, and centrifuged at 4000 RPM for 30 minutes at 37° C. The 4 mL of resultant supernatant was directly used in the assay. The final DMSO concentration in the transport experiments was 1%.
On the day of assay, Caco-2 monolayers were washed twice with transport buffer (HBSS, pH 7.4) and pre-incubated for 30 min (37° C., 5% CO2, 95% RH) in an incubator. The electrical resistance of the monolayers was measured with a Millicell®—ERS system. Monolayers with trans-epithelial electrical resistance (TEER) values greater than 350 ohm·cm^2 were selected for the assay.
The assay was conducted in absorptive direction (A2B) and secretory (B2A) directions. Transport experiments were initiated by addition of transport assay buffer (FaSSIF buffer prepared in HBSS) consisting of compounds to the donor compartment (apical chamber A-B; basolateral chamber B-A) in duplicate (n=2) wells. Drug free HBSS buffer (pH 7.4) containing 1% bovine serum albumin (BSA) was introduced to the receiver (A-B-basolateral; B-A-Apical) compartments. The volumes of apical and basolateral compartments were 0.4 and 0.8 mL, respectively. After adding dosing solution, plates were incubated in an incubator for 120 minutes at 37° C. After 120 minutes, donor and receiver samples were collected and matrix matched (1:1, 30 μL study sample+30 μL blank buffer) with the opposite buffer. Dosing samples matrix matched (1:1, 30 μL study sample+30 μL blank buffer) with the opposite buffer. Samples were processed by adding acetonitrile containing internal standard (60 μL study sample+200 μL acetonitrile containing internal standard—Tolbutamide, 500 ng/mL). Samples were vortexed and centrifuged at 4000 rpm for 10 minutes. The obtained supernatant (100 μL) was diluted with 100 μL of water and transferred to fresh 96 well plates. The concentration of compounds in the samples was analyzed by liquid chromatography tandem mass spectrometry (LC-MS/MS) method using discovery grade bio-analytical method, as applicable.
The mean apparent permeability (Papp,×10^−6 cm/sec) of the test compounds, atenolol, propranolol and digoxin were calculated as follows:
[formula] where dq/dt=rate of transport (rate of transport of compound in the receiver compartment), C0=initial concentration in the donor compartment, A=surface area of the effective filter membrane.

Human LBAT = biological target: T2, Human LBAT (Homo sapiens, UniProt Q14973); experiment: LBAT (h/m) assay, human LBAT-overexpressing cells, 3H-taurocholic acid uptake; assay type: cell-based; conditions: 0.3 μM 3H-taurocholic acid and 7.5 μM cold taurocholic acid, 20 minutes, read-out: hLBAT IC50
T2 construct: expressed in transfected cells; Geneticin-selected
T2 sequence (Q14973 1-349): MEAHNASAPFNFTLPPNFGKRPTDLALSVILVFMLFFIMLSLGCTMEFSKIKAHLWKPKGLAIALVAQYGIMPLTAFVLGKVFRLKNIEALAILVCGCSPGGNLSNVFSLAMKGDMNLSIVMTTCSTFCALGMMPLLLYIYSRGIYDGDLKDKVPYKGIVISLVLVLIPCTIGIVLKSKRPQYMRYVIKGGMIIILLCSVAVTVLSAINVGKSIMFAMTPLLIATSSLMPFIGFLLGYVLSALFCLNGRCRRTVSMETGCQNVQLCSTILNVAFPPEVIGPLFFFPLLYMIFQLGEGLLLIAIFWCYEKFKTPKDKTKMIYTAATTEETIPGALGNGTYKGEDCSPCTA
Procedure: LBAT (h/m) Assay Protocol
20,000 cells (Human or Mouse LBAT-overexpressing cells) were seeded in 96-wells plate (Corning CLS3809) in 100 μL MEM-alpha medium (Gibco 12571-063) supplemented with 10% FBS (Gibco 10438026) containing Geneticin (Gibco 10131-027) (1 mg/mL) and incubated at 37° C. in 5% CO2 for 24 hours. After incubation, media was decanted from the wells and cells were washed two times with 300 μL of basal MEM-alpha medium (FBS-free). After decanting basal MEM-alpha medium each time, plates were tapped against paper towel to ensure maximum removal of residual media.
For human LBAT, incubation mix was prepared by adding test inhibitor dilutions (3-fold serial dilution in DMSO (Sigma D2650), 10 points) in MEM-alpha (without FBS) containing 0.3 μM 3H-taurocholic acid (ARC ART-1368) and 7.5 μM cold taurocholic acid (Sigma T4009) (maintaining 0.2% final DMSO concentration). For mouse LBAT, incubation mix was prepared by adding test inhibitor dilutions (3-fold serial dilution in DMSO, 10 points) in MEM-alpha (without FBS) containing 0.3 μM 3H-taurocholic acid and 25 μM cold taurocholic acid maintaining 0.2% final DMSO concentration). 50 μL of incubation mix containing test inhibitors was then added to the wells (in duplicate) and the plates were incubated for 20 minutes in a CO2 incubator at 37° C. After incubation, the reaction was stopped by keeping the plates on ice water mix for 2-3 minutes and then the incubation mix was aspirated completely from the wells. The wells were washed two times with 250 μL of chilled unlabelled 1 mM taurocholic acid dissolved in HEPES (Gibco 15630080)-buffered (10 mM) HBSS (Gibco 14175079) (pH 7.4). The plates were tapped against a paper towel after every wash to ensure maximum removal of blocking buffer. 100 μL of MicroScint-20 (PerkinElmer 6013621) was added to the wells and kept overnight at room temperature before reading the plates in TopCount NXT™ Microplate Scintillation and Luminescence Counter from PerkinElmer under 3H Test protocol (set at 120 seconds reading time per well, with normal plate orientation).
as §1, §2

CCCCC1(CC)CN(c2ccccc2)c2cc(N(C)C)c(OCCC(=O)O)cc2S(=O)(=O)C1 (racemic) [Example 16, 3-((3-Butyl-7-(dimethylamino)-3-ethyl-1,1-dioxido-5-phenyl-2,3,4,5-tetrahydro-1,5-benzothiazepin-8-yl)oxy)propanoic acid]
IC50 (Human IBAT): 3 nM
Papp A→B at 120 min, 10 μM [1]: 17.6 ×10⁻⁶ cm/s

CCCCC1(CC)CN(c2ccccc2)c2cc(N(C)C)c(OCCC(=O)O)cc2S(=O)(=O)C1 (single isomer, unassigned) [Example 17, 3-((3-butyl-7-(dimethylamino)-3-ethyl-1,1-dioxido-5-phenyl-2,3,4,5-tetrahydro-1,5-benzothiazepin-8-yl)oxy)propanoic acid]
IC50 (Human IBAT): 2 nM
Papp A→B at 120 min, 10 μM [1]: 16.5 ×10⁻⁶ cm/s

CCCCC1(CC)CN(c2ccccc2)c2cc(SC)c(OCC(C)(O)C(=O)O)cc2S(=O)(=O)C1 (single isomer, unassigned) [48, diastereomer 1]
IC50 (Human LBAT): 1190 nM
IC50 (Human IBAT): 56 nM

CCCCC1(CCCC)CN(c2ccccc2)c2cc(SC)c(OCC(C)(O)C(=O)O)cc2S(=O)(=O)C1 (single isomer, unassigned) [Example 20, 3-((3,3-dibutyl-7-(methylthio)-1,1-dioxido-5-phenyl-2,3,4,5-tetrahydro-1,5-benzothiazepin-8-yl)oxy)-2-hydroxy-2-methylpropanoic acid]
IC50 (Human LBAT): 1390 nM
IC50 (Human IBAT): 42 nM

CCCCC1(CCCC)CN(c2ccccc2)c2cc(SC)c(OCC(C)(O)C(=O)O)cc2S(=O)(=O)C1 (single isomer, unassigned) [Example 21, 3-((3,3-dibutyl-7-(methylthio)-1,1-dioxido-5-phenyl-2,3,4,5-tetrahydro-1,5-benzothiazepin-8-yl)oxy)-2-hydroxy-2-methylpropanoic acid]
IC50 (Human LBAT): 608 nM
IC50 (Human IBAT): 19 nM

CCCCC1(CC)CN(c2ccccc2)c2cc(Cl)c(OCCC(=O)O)cc2S(=O)(=O)C1 (racemic) [Example 5, 3-((3-Butyl-7-chloro-3-ethyl-1,1-dioxido-5-phenyl-2,3,4,5-tetrahydro-1,5-benzothiazepin-8-yl)oxy)propanoic acid]
IC50 (Human LBAT): 791 nM
IC50 (Human IBAT): 35 nM

CCCCC1(CCCC)CN(c2ccccc2)c2cc(SC)c(OCC(C)(O)C(=O)O)cc2S(=O)(=O)C1 (racemic) [Example 19, 3-((3,3-Dibutyl-7-(methylthio)-1,1-dioxido-5-phenyl-2,3,4,5-tetrahydro-1,5-benzothiazepin-8-yl)oxy)-2-hydroxy-2-methylpropanoic acid]
IC50 (Human LBAT): 601 nM
IC50 (Human IBAT): 39 nM

CCCCC1(CCCC)CN(c2ccccc2)c2cc(OC)c(OCCC(=O)O)cc2S(=O)(=O)C1 [Example 45, 3-((3,3-Dibutyl-7-methoxy-1,1-dioxido-5-phenyl-2,3,4,5-tetrahydro-1,5-benzothiazepin-8-yl)oxy)propanoic acid]
IC50 (Human LBAT): > 6670 nM
IC50 (Human IBAT): 11 nM

— US11773071B2, “Benzothiazepine compounds and their use as bile acid modulators” (Albireo AB, priority 2019, dated 2023)
